From patent US11881606B2, “Conductive materials to drive bacterial carbon dioxide fixation” (The Government of the United States of America, as …, priority 2019, dated 2024)
Where “and” joins values, the source holds several entries; their conditions need not be identical. Equal values may be shown once.

Experiments:
[1] = test system: Biocathode MCL; experiment: Current production by Biocathode MCL on electrode set at 0.310 V with antibiotics; type: cell-based; conditions: ampicillin at 100 μg/ml; electrode potential set at 0.310 V
Procedure: (§1) Biocathode MCL was cultivated in artificial seawater (ASW) medium containing 27.50 g NaCl, 3.80 g MgCl2·6H2O, 6.78 g MgSO4·H2O, 0.72 g KCl, 0.62 g NaHCO3, 5.58 g CaCl2·H2O, 1.00 g NH4Cl, 0.05 g K2HPO4, and 1 ml Wolfe's Trace Mineral Solution per liter. The NaHCO3 was autoclaved in a separate sealed bottle and added after cooling to avoid precipitation. The medium was adjusted to a pH between 6.5 and 6.8 by briefly bubbling with 100% CO2. Source cultures were continuously maintained in 2 liter, 3-electrode reactors with carbon cloth as working and counter electrodes. The working electrode was poised at 0.310 V SHE (standard hydrogen electrode).
For these experiments, bioelectrochemical systems (BES) were 175 ml glass electrochemical reactors (Pine Instruments, Grove City, Pa.). Working electrodes were either 10.5 cm^2 graphite flags (Tri-Gemini, Hillside, Ill.) or carbon cloth (Fuel Cell Earth, Woburn, Mass.) cut to roughly 3.5×1.5 cm for an area of 10.5 cm^2. Counter electrodes were carbon cloth electrodes cut to approximately 3.5×1.5 cm. Graphite flags were sanded down prior to cleaning. Both carbon cloth and graphite flag electrodes were soaked overnight in 1 M hydrochloric acid, then rinsed and soaked overnight in ultrapure deionized water (MilliQ, Millipore-Sigma, Burlington, Mass.). Electrodes were suspended in the reactors from titanium wires, attached by titanium screws. […]

[2] = test system: Biocathode MCL; experiment: Effect of antibiotics and cyanide on the open circuit potential (OCP) of electrodes with Biocathode MCL biofilm; type: cell-based
Procedure: FIGS. 3A and 3B illustrate the effect of the addition of antibiotics on the open circuit potential (OCP). […]
as §1
For these experiments, bioelectrochemical systems (BES) were 175 ml glass electrochemical reactors (Pine Instruments, Grove City, Pa.). Working electrodes were either 10.5 cm^2 graphite flags (Tri-Gemini, Hillside, Ill.) or carbon cloth (Fuel Cell Earth, Woburn, Mass.) cut to roughly 3.5×1.5 cm for an area of 10.5 cm^2. Counter electrodes were carbon cloth electrodes cut to approximately 3.5×1.5 cm. Graphite flags were sanded down prior to cleaning. Both carbon cloth and graphite flag electrodes were soaked overnight in 1 M hydrochloric acid, then rinsed and soaked overnight in ultrapure deionized water (MilliQ, Millipore-Sigma, Burlington, Mass.). Electrodes were suspended in the reactors from titanium wires, attached by titanium screws. The reference electrodes for the experiments were 3 M KCl Ag/AgCl (BASI, West Lafayette, Ind.) washed in bleach and rinsed in sterile ultrapure deionized water. All potentials are reported here as vs. SHE by adding 0.21V to the experimental potentials vs. Ag/AgCl.
Once assembled, the BES were maintained at 30° C. using water jackets and stirred using small stir bars and stir plates (VWR, Radnor, Pa., USA). The electrodes were connected to a multichannel potentiostat (Biologic, Seyssinet-Pariset, France), which was used to record cyclic voltammograms at fast (20 mV/S) and slow (0.2 mV/S) scan rates, and then to monitor the OCP or, for experiments with set potential, to hold the potential at 0.310 V and monitor current production. After the signal stabilized, the reactors were inoculated with 1 ml of initial inoculum diluted 10^−3 or 10^−4-fold. Based on the cell counts of filtered inoculum, reactors in experiment 1 were inoculated with ca. 30 or ca. 300 cells, while reactors in experiment 2 were inoculated with ca. 110 or ca. 1100 cells and reactors in experiment 3 were inoculated with 700 cells.
The effect of antibiotics on the open circuit potential was examined in order to determine whether the maintenance of the OCP was dependent on metabolically active cells. Because ampicillin kills only dividing cells (by interfering with cell wall formation^21), while kanamycin kills by interfering with translation machinery (killing bacteria that are actively manufacturing proteins^21), these antibiotics were used to determine the rough metabolic state of the cells.
To test how long the cells remained active and sensitive to antibiotics, reactors were incubated for 26 days before antibiotic additions. The inoculated reactors maintained an OCP close to 0.50 V vs. SHE during the 26-day incubation. […] Cyanide, which inhibits cytochrome function, caused an immediate drop in potential in both old and young reactors (FIGS. 3A and 3B).

[3] = added 10 days after inoculation

Structure (SMILES)	Current production [1]	OCP at end of drop [2, 3]	Time until OCP began dropping [2, 3] [days]	Time until OCP reduction began ([2]; added 26 days after inoculation)	Effect on OCP ([2]; added 26 days after inoculation, followed for two weeks)	Time until drop in OCP began ([2]; added 10 days after inoculation, two experiments)
CC1(C)S[C@@H]2[C@H](NC(=O)[C@H](N)c3ccccc3)C(=O)N2[C@H]1C(=O)O [ampicillin]	inhibited	return to its pre-inoculation level	2 to 3	two	not returning to the abiotic OCP even after two weeks	
NC[C@H]1O[C@H](O[C@H]2[C@H](O)[C@@H](O[C@H]3O[C@H](CO)[C@@H](O)[C@H](N)[C@H]3O)[C@H](N)C[C@@H]2N)[C@H](O)[C@@H](O)[C@@H]1O [kanamycin]						13 h and 10 h
